Assay results reported in patent publication US20110098304A1, “Small molecule inhibitors of PARP activity” (priority 2009, published 2011).
pIC50: −log10 of the molar value.

What follows are compounds tested against T1, human PARD-1 (Poly (ADP-Ribose) Polymerase-1) (Homo sapiens, UniProt P09874) (assay: Poly (ADP-Ribose) Polymerase-1 in vitro enzyme assay (Universal Colorimetric Assay Kit, Trevigen)). Conditions: letter codes; read-out: extent of inhibition of PARP activity (IC50, micromolar).
T1 construct: purchased Trevigen Inc., Gaithersburg, Md
T1 sequence (P09874 whole entry): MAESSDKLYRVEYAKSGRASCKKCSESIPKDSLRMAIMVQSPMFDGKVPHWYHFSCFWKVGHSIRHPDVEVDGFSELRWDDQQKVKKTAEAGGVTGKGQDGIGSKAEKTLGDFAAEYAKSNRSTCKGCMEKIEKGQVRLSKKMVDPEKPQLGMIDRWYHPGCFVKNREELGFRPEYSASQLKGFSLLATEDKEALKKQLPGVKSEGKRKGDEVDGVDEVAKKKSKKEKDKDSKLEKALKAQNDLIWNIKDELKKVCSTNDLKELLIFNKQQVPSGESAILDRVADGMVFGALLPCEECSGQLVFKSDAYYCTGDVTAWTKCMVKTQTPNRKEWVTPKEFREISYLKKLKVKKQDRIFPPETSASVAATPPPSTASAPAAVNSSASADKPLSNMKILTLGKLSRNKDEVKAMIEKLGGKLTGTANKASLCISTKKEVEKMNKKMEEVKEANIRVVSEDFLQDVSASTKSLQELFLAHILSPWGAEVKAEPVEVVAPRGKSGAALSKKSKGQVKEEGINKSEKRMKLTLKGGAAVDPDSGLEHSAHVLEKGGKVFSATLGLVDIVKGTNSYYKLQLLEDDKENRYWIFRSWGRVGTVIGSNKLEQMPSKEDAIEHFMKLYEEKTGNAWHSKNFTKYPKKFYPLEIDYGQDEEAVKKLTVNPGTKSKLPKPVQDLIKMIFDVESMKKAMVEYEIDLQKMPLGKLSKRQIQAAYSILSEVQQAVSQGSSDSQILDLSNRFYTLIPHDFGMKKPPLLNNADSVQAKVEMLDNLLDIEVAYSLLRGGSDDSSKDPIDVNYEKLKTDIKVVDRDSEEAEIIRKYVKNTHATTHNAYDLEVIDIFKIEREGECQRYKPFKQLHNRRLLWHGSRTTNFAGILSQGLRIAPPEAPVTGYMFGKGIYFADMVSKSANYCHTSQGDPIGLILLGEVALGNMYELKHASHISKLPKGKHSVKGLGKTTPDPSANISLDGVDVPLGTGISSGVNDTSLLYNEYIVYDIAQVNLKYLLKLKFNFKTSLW
Type: biochemical
Experimental: Poly (ADP-Ribose) Polymerase-1 (PARD-1) In Vitro Enzyme Assay: Compounds were screened for inhibitory activity against human PARD-1 in vitro using the Universal Colorimetric PARD Assay Kit (Trevigen Inc., Gaithersburg, Md.) as directed by the supplier. Compounds are assayed in duplicate in 0.5% DMSO final concentration, negative control is no enzyme, while positive control is DMSO vehicle alone. IC50 determinations are made using Microsoft Excel. For all cell assays, compounds are added to cells in 5% DMSO/PBS for a final concentration of 0.5% DMSO.
Work on CN1CCN(c2ccc(-c3n[nH]c(=O)c4ccccc34)cc2NC(=O)C(C)(C)C)CC1 [N-(2-(4-methylpiperazin-1-yl)-5-(4-oxo-3,4-dihydrophthalazin-1-yl)phenyl)pivalamide] yielded a pIC50 of under 5.30. Compound CN1CCN(c2ccc(-c3n[nH]c(=O)c4ccccc34)cc2NC(=O)NC(=O)c2ccccc2)CC1 [N-(2-(4-methylpiperazin-1-yl)-5-(4-oxo-3,4-dihydrophthalazin-1-yl)phenylcarbamoyl)benzamide] has a pIC50 of 6.00 to 7.00. In the case of CC(=O)Nc1cc(-c2n[nH]c(=O)c3ccccc23)ccc1N1CCN(C(C)(C)C)CC1 [N-(2-(4-tert-butylpiperazin-1-yl)-5-(4-oxo-3,4-dihydrophthalazin-1-yl)phenyl)acetamide], the pIC50 was 5.30 to 6.00. With CC(C)(C)C(=O)Nc1cc(-c2n[nH]c(=O)c3ccccc23)ccc1N1CCN(C(C)(C)C)CC1 [N-(2-(4-tert-butylpiperazin-1-yl)-5-(4-oxo-3,4-dihydrophthalazin-1-yl)phenyl)pivalamide] the pIC50 was under 5.30. Compound COC(=O)C(=O)Nc1cc(-c2n[nH]c(=O)c3ccccc23)ccc1N1CCN(C)CC1 [methyl 2-(2-(4-methylpiperazin-1-yl)-5-(4-oxo-3,4-dihydrophthalazin-1-yl)phenylamino)-2-oxoacetate] has a pIC50 of 6.00 to 7.00. With CC(C)(C)OC(=O)CN1CCN(c2ccc(-c3n[nH]c(=O)c4ccccc34)cc2N)CC1 [tert-butyl 2-(4-(2-amino-4-(4-oxo-3,4-dihydrophthalazin-1-yl)phenyl)piperazin-1-yl)acetate] the pIC50 was 6.00 to 7.00.
